Laboratory results published in US12059420B2 (BRISTOL-MYERS SQUIBB COMPANY, priority 2018, dated 2024).
Where a name gives a salt, the structure may show the parent alone.

target: T1, human IDO1 (Homo sapiens, UniProt P14902); test: IDO inhibition assay in HEK293 cells stably expressing human IDO1 (kynurenine production, Ehrlich reagent, absorbance 490 nm); format: cell-based; details: 20 hours incubation with compound, 500 nM reference standard = 100% inhibition, read-out: IDO1 HEK Human IC50
T1 construct: expressed in transfected cells
T1 sequence (P14902 whole entry): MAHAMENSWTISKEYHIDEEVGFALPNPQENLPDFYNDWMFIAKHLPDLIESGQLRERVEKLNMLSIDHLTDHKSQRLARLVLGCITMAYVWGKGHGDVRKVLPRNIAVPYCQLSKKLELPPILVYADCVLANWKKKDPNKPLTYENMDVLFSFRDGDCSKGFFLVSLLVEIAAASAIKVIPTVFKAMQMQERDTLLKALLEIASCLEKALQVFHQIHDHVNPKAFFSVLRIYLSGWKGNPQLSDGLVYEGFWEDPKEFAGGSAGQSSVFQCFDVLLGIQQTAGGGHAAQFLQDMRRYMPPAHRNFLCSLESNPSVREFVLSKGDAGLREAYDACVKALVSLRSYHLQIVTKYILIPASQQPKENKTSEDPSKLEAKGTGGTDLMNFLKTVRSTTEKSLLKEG
Method: HEK293 cells were transfected with a pCDNA-based mammalian expression vector harboring human IDO1 cDNA (NM 002164.2) by electroporation. They were cultured in medium (DMEM with 10% FBS) containing 1 mg/ml G418 for two weeks. Clones of HEK293 cells that stably expressed human IDO1 protein were selected and expanded for IDO inhibition assay.
The human IDO1/HEK293 cells were seeded at 10,000 cells per 50 μL per well with RPMI/phenol red free media contains 10% FBS in a 384-well black wall clear bottom tissue culture plate (Matrix Technologies LLC) 100 nL of certain concentration of compound was then added to each well using ECHO liquid handling systems. The cells were incubated for 20 hours in 37° C. incubator with 5% CO2.
The compound treatments were stopped by adding trichloroacetic acid (Sigma-Aldrich) to a final concentration at 0.2%. The cell plate was further incubated at 50° C. for 30 minute. The equal volume supernatant (20 μL) and 0.2% (w/v) Ehrlich reagent (4-dimethylaminobenzaldehyde, Sigma-Aldrich) in glacial acetic acid were mixed in a new clear bottom 384-well plate. This plate was then incubated at RT for 30 minute. The absorbance at 490 nm was measured on Envision plate reader.
Compound IC50 values were calculated using the counts of 500 nM of a reference standard treatment as one hundred percent inhibition, and counts of no compound but DMSO treatment as zero percent inhibition.

Row | SMILES | IC50
1 | CCCN(Cc1ccccc1)c1cc(NC(=O)Cc2ccc(C(C)C)cc2)cc(-c2ccccc2-c2nn[nH]n2)n1 [Example 220, N-(2-(2-(2H-tetrazol-5-yl)phenyl)-6-(benzyl(propyl)amino)pyridin-4-yl)-2-(4-isopropylphenyl)acetamide] | 0.0526 µM
2 | CCCN(Cc1ccccc1)c1cc(NC(=O)Nc2ccc(C)nc2)cc(-c2ccccc2-c2nnn[nH]2)n1 [Example 267, 1-(2-(2-(1H-tetrazol-5-yl)phenyl)-6-(benzyl(propyl)amino)pyridin-4-yl)-3-(6-methylpyridin-3-yl)urea] | 1.36 µM
3 | Cc1ccc(Nc2cc(-c3ccccc3-c3nnn[nH]3)nc(N(Cc3ccccc3)CC(C)C)c2)c(F)c1 [Example 147, 6-(2-(1H-tetrazol-5-yl)phenyl)-N2-benzyl-N4-(2-fluoro-4-methylphenyl)-N2-isobutylpyridine-2,4-diamine] | 0.0073 µM
4 | CCCN(CC1CC1)c1cc(NC(=O)Cc2ccc(C)cc2F)cc(-c2ccccc2-c2nnn[nH]2)n1 [Example 82, N-(2-(2-(1H-tetrazol-5-yl)phenyl)-6-((cyclopropylmethyl)(propyl)amino)pyridin-4)-2-(2-fluoro-4-methylphenyl)acetamide, TFA] | 0.731 µM
5 | CC(C)CN(Cc1ccccc1)c1cc(Nc2ccc(Cl)cc2F)cc(-c2ccccc2-c2nnn[nH]2)n1 [Example 180, 6-(2-(1H-tetrazol-5-yl)phenyl)-N2-benzyl-N4-(4-chloro-2-fluorophenyl)-N2-isobutylpyridine-2,4-diamine] | 0.0022 µM
6 | COc1cc(Nc2cc(-c3ccccc3-c3nnn[nH]3)nc(N(Cc3ccccc3)CC(C)C)c2)ccc1F [Example 190, 6-(2-(1H-tetrazol-5-yl)phenyl)-N2-benzyl-N4-(4-fluoro-3-methoxyphenyl)-N2-isobutylpyridine-2,4-diamine] | 0.0085 µM
7 | CCN(CCC(F)(F)F)c1cc(NC(=O)Cc2ccc(C)cc2)cc(-c2ccccc2-c2nnn[nH]2)n1 [Example 101, N-(2-(2-(1H-tetrazol-5-yl)phenyl)-6-(ethyl(3,3,3-trifluoropropyl)amino)pyridin-4-yl)-2-(p-tolyl)acetamide] | 0.514 µM
8 | CCCN(Cc1ccc(F)cc1)c1cc(NC(=O)Nc2ccc(Cl)cc2Cl)cc(-c2ccccc2-c2nnn[nH]2)n1 [Example 86, 1-(2-(2-(1H-tetrazol-5-yl)phenyl)-6-((4-fluorobenzyl)(propyl)amino)pyridin-4-yl)-3-(2,4-dichlorophenyl)urea] | 0.0086 µM
9 | CCCN(CC1CC1)c1cc(NC(=O)Cc2ccc(F)cc2F)cc(-c2ccccc2-c2nnn[nH]2)n1 [Example 70, N-(2-(2-(1H-tetrazol-5-yl)phenyl)-6-((cyclopropylmethyl)(propyl)amino)pyridin-4-yl)-2-(2,4-difluorophenyl)acetamide, TFA] | 0.421 µM
10 | Cc1cnc(Nc2cc(-c3ccccc3-c3nnn[nH]3)nc(N(Cc3ccc(F)cc3)CC(C)C)c2)nc1 [Example 40, 6-(2-(1H-tetrazol-5-yl)phenyl)-N2-(4-fluorobenzyl)-N2-isobutyl-N4-(5-methylpyrimidin-2-yl)pyridine-2,4-diamine, TFA] | 0.0331 µM
11 | CC(C)CN(Cc1ccc(F)cc1)c1cc(Nc2ccc(F)cn2)cc(-c2ccccc2-c2nnn[nH]2)n1 [Example 48, 6-(2-(1H-tetrazol-5-yl)phenyl)-N2-(4-fluorobenzyl)-N4-(5-fluoropyridin-2-yl)-N2-isobutylpyridine-2,4-diamine] | 0.0107 µM
12 | Cc1ccc(CC(=O)Nc2cc(-c3ccccc3-c3nnn[nH]3)nc(N(Cc3ccccc3)CC(C)C)n2)c(F)c1 [Example 11, N-(6-(2-(1H-tetrazol-5-yl)phenyl)-2-(benzyl(isobutyl)amino)pyrimidin-4-yl)-2-(2-fluoro-4-methylphenyl)acetamide] | 0.0181 µM
13 | CCCN(Cc1ccccc1)c1cc(NC(=O)C(F)c2ccccc2)cc(-c2ccccc2-c2nn[nH]n2)n1 (centres unmarked) [Example 212, N-(2-(2-(2H-tetrazol-5-yl)phenyl)-6-(benzyl(propyl)amino)pyridin-4-yl)-2-fluoro-2-phenylacetamide] | 0.224 µM
14 | CC(C)CN(Cc1ccccc1)c1cc(Nc2ncnc3[nH]ccc23)cc(-c2ccccc2-c2nnn[nH]2)n1 [Example 173, 6-(2-(1H-tetrazol-5-yl)phenyl)-N2-benzyl-N2-isobutyl-N4-(7H-pyrrolo[2,3-d]pyrimidin-4-yl)pyridine-2,4-diamine] | 0.259 µM
15 | CCC(CC(=O)O)c1cc(NC(=O)Nc2ccc(C)cc2)cc(N(Cc2ccc(F)cc2)CC(C)C)n1 (single isomer, unassigned) [Example 250, 3-(6-((4-fluorobenzyl)(isobutyl)amino)-4-(3-(p-tolyl)ureido)pyridin-2-yl)pentanoic acid] | 0.156 µM
16 | CCCN(CC1CC1)c1nc(NC(=O)Nc2ccc(C)cc2)cc(-c2ccccc2-c2nnn[nH]2)n1 [Example 66, 1-(6-(2-(1H-tetrazol-5-yl)phenyl)-2-((cyclopropylmethyl)(propyl)amino)pyrimidin-4-yl)-3-(p-tolyl)urea, TFA] | 0.44 µM

Row | SMILES | IC50
17 | CCCN(CC1CC1)c1cc(NC(=O)Nc2ccc(Cl)cc2Cl)cc(-c2ccccc2-c2nnn[nH]2)n1 [Example 83, 1-(2-(2-(1H-tetrazol-5-yl)phenyl)-6-((cyclopropylmethyl)(propyl)amino)pyridin-4-yl)-3-(2,4-dichlorophenyl)urea, TFA] | 0.158 µM
18 | CC(C)CN(Cc1ccccc1)c1cc(Nc2ncccn2)cc(-c2ccccc2-c2nnn[nH]2)n1 [Example 141, 6-(2-(1H-tetrazol-5-yl)phenyl)-N2-benzyl-N2-isobutyl-N4-(pyrimidin-2-yl)pyridine-2,4-diamine] | 0.0396 µM
19 | Cc1ccc(NC(=O)Nc2cc(-c3ccccc3-c3nnn[nH]3)nc(N(Cc3ccccc3)CC(C)C)c2)cc1 [Example 240, 1-(2-(2-(1H-tetrazol-5-yl)phenyl)-6-(benzyl(isobutyl)amino)pyridin-4-yl)-3-(p-tolyl)urea] | 0.0119 µM
20 | Cc1ccc(Nc2cc(-c3ccccc3-c3nnn[nH]3)nc(N(Cc3ccccc3)CC(C)C)c2)nc1 [Example 142, 6-(2-(1H-tetrazol-5-yl)phenyl)-N2-benzyl-N2-isobutyl-N4-(5-methylpyridin-2-yl)pyridine-2,4-diamine] | 0.0368 µM
21 | CC(C)CN(Cc1ccccc1)c1cc(Nc2ccc(F)c(Cl)c2)cc(-c2ccccc2-c2nnn[nH]2)n1 [Example 169, 6-(2-(1H-tetrazol-5-yl)phenyl)-N2-benzyl-N4-(3-chloro-4-fluorophenyl)-N2-isobutylpyridine-2,4-diamine] | 0.0111 µM
22 | CCCN(Cc1ccccc1)c1cc(NC(=O)Cc2ccc(C)cc2)cc(-c2ccccc2C(=O)NS(C)(=O)=O)n1 [Example 21, 2-(6-(benzyl(propyl)amino)-4-(2-(p-tolyl)acetamido)pyridin-2-yl)-N-(methylsulfonyl)benzamide] | 0.328 µM
23 | CCCN(Cc1ccccc1)c1cc(NC(=O)C2CCCCC2)cc(-c2cc(C)ccc2-c2nnn[nH]2)n1 [Example 304, N-(2-(Benzyl(propyl)amino)-6-(5-methyl-2-(1H-tetrazol-5-yl)phenyl)pyridin-4-yl)cyclohexanecarboxamide] | 1.31 µM
24 | Cc1ccc(NC(=O)Nc2cc(-c3ccccc3-c3nnn[nH]3)nc(N(Cc3ccccc3)CC(C)C)n2)cc1 [Example 10, 1-(6-(2-(1H-tetrazol-5-yl)phenyl)-2-(benzyl(isobutyl)amino)pyrimidin-4-yl)-3-(p-tolyl)urea] | 0.404 µM
25 | Cc1ccc(CC(=O)Nc2cc(-c3ccccc3-c3nnn[nH]3)nc(N3CCCC(C)C3)c2)cc1 (centres unmarked) [Example 126, N-(2-(2-(1H-tetrazol-5-yl)phenyl)-6-(3-methylpiperidin-1-yl)pyridin-4-yl)-2-(p-tolyl)acetamide] | 2 µM
26 | CC(C)CN(Cc1ccccc1)c1cc(Nc2ccc3c(c2)OCO3)cc(-c2ccccc2-c2nnn[nH]2)n1 [Example 57, 6-(2-(1H-tetrazol-5-yl)phenyl)-N4-(benzo[d][1,3]dioxol-5-yl)-N2-benzyl-N2-isobutylpyridine-2,4-diamine] | 0.004 µM
27 | COc1cc(Nc2cc(-c3ccccc3-c3nnn[nH]3)nc(N(Cc3ccccc3)CC(C)C)c2)ccc1Cl [Example 188, 6-(2-(1H-tetrazol-5-yl)phenyl)-N2-benzyl-N4-(4-chloro-3-methoxyphenyl)-N2-isobutylpyridine-2,4-diamine] | 0.002 µM
28 | CCN(Cc1ccccc1)c1cc(NC(=O)Nc2ccc(Cl)cc2F)cc(-c2ccccc2-c2nnn[nH]2)n1 [Example 275] | 0.0266 µM
29 | CCCN(Cc1ccccc1)c1cc(NC(=O)Nc2ccc(Cl)cc2Cl)cc(-c2cc(C)ccc2-c2nnn[nH]2)n1 [Example 302, 1-(2-(Benzyl(propyl)amino)-6-(5-methyl-2-(1H-tetrazol-5-yl)phenyl)pyridin-4-yl)-3-(2,4-dichlorophenyl)urea] | 0.0055 µM
30 | CCCN(Cc1ccccc1)c1cc(NC(=O)Cc2c[nH]cn2)cc(-c2ccccc2-c2nn[nH]n2)n1 [Example 207, N-(2-(2-(2H-tetrazol-5-yl)phenyl)-6-(benzyl(propyl)amino)pyridin-4-yl)-2-(1H-imidazol-4-yl)acetamide] | 3.43 µM
31 | CC(C)CN(CC(C)C)c1cc(NC(=O)Nc2ccccc2F)cc(-c2ccccc2C(=O)O)n1 [Example 252, 2-(6-(diisobutylamino)-4-(3-(2-fluorophenyl)ureido)pyridin-2-yl)benzoic acid] | 0.972 µM
32 | CCCN(Cc1ccccc1)c1cc(NC(=O)Cc2ccc(C)cc2)cc(-c2ccccc2C(N)=O)n1 [Example 29] | 0.616 µM
